Numbers after ± are expanded uncertainties.
Key:
[1] = Molar enthalpy of transition or fusion; conditions: Crystal; DSC
[2] = Crystal; DTA

- Molar enthalpy of transition or fusion [1]: 6.55 ± 0.956 kcal/mol
- Normal melting temperature [2]: 219.20 ± 1 °C
Compound: O=C(O)C=Cc1ccc(O)cc1 [3-(4-hydroxyphenyl)-2-propenoic acid]

From the NIST ThermoML archive (doi:10.1016/j.jct.2013.02.013)
